melting point: 119 °C
SMILES: Cc1cc2ncc(-c3cccc(-c4ccccc4C#N)c3)n2cn1 [Example 1, 3′-(7-Methylimidazo[1,2-c]pyrimidin-3-yl)biphenyl-2-carbonitrile]

Reference: US6914065B2, “Imidazo[1,2-C]pyrimidine derivatives as ligands for gaba receptors” (Merck Sharp & Dohme Ltd., priority 2000, dated 2005)
